Drawing on ChEMBL document CHEMBL1137932, “Synthesis of S-alkyl L-homocysteine analogues of glutathione and their kinetic studies with gamma-glutamyl transpeptidase” (Bioorg Med Chem Lett, 2004), this text covers Ki for seven compounds.

Structures are written as SMILES. pKi: −log10 of the molar value.

In general, pKi refers to the Ki on a negative log10 scale, so that one unit is a factor of ten.

Common to all, as to type: tissue-based
Assay [1] deals with T1, Glutathione hydrolase 1 proenzyme (Rattus norvegicus, UniProt P07314). The experiment in a line: Compound tested for the inhibition of Gamma-glutamyltranspeptidase in rat kidney at pH 8.0 at 37 degree C (Competitive inhibition).
The target in assay [2] is T1, Glutathione hydrolase 1 proenzyme. In words: Compound tested for the inhibition of Gamma-glutamyltranspeptidase in rat kidney at pH 8.0 at 37 degree C.
The target is the same in assay [3]. The experiment in a line: Compound tested for the inhibition of Gamma-glutamyltranspeptidase in rat kidney at pH 8.0 at 37 degree C; N/0=No inhibition observed up to 20 mM.

T1 sequence (P07314 1-379 limits assumed): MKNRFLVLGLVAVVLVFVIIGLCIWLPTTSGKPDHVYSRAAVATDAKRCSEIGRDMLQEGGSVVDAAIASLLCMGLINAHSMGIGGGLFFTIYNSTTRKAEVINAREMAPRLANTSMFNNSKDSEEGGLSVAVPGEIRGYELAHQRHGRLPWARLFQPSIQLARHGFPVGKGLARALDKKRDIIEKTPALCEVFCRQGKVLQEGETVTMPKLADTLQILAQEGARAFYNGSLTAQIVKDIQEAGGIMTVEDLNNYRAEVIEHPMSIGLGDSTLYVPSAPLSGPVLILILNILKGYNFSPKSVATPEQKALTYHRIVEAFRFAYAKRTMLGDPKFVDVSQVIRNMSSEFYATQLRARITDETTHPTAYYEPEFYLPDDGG
T1 sequence (P07314 380-568 limits assumed): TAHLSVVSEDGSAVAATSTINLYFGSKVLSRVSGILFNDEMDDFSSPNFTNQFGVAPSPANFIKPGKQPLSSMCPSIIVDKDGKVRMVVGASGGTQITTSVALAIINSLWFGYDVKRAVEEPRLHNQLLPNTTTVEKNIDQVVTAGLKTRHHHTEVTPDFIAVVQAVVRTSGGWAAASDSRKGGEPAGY

`N[C@@H](CC[S+]([O-])Cc1ccc(C(=O)NCC(=O)O)cc1)C(=O)O` (some centres not stated) gave a pKi in assay [1] of 3.64.

As for `NC(CC[S+]([O-])CCC(=O)NCC(=O)O)C(=O)O` (configuration not stated), the pKi in assay [1] is 4.28. This pKi lies 0.64 log units higher than the previous one.

`N[C@@H](CCSCCC(=O)NCC(=O)O)C(=O)O`: in assay [1], the pKi was 3.28.

`C[S+]([O-])CC[C@H](N)C(=O)O` (some centres not stated) [METHIONINE SULFOXIDE] showed a pKi in assay [1] of 2.23.

In assay [2], `N[C@@H](CCS(=O)(=O)CCC(=O)NCC(=O)O)C(=O)O` gave a pKi of 2.46.

Consider `CS(=O)(=O)CC[C@H](N)C(=O)O` [METHIONINE SULFONE], for which the Ki entry in assay [3] is reported as “No inhibition to 20mM”.

Compound `CSCC[C@H](N)C(=O)O` [METHIONINE] showed a pKi in assay [1] of 1.57.
